In patent publication US7799796B2, “Diaminopyrimidines as P2X3 and P2X2/3 modulators” (Roche Palo Alto LLC, priority 2005, dated 2010):

Legend:
human P2X2/3 receptor = target: T1, human P2X2/3 receptor (Homo sapiens, UniProt P56373+Q9UBL9); assay: P2X2/3 FLIPR (Fluorometric Imaging Plate Reader) assay; assay type: cell-based; conditions: CHO-K1 cells transfected with human P2X2/3; agonist α,β-meATP 5 μM; read-out: pIC50 for the P2X2/3 receptor (converted)
T1 construct: expressed in transfected cells; host or cells: CHO-K1
T1 sequence (P56373 1-397): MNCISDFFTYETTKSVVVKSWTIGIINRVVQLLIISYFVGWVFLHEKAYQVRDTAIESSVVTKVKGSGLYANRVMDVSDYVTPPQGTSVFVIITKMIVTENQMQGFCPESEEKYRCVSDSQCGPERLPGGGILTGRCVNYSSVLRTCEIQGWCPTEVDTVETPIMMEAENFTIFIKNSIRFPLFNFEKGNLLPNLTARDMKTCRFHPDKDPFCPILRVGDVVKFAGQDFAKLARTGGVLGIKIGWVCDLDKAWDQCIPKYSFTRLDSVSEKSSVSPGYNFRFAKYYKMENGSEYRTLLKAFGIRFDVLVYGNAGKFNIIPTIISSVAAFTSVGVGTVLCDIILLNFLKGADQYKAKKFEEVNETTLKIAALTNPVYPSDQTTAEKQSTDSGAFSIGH
T1 sequence (Q9UBL9 1-471): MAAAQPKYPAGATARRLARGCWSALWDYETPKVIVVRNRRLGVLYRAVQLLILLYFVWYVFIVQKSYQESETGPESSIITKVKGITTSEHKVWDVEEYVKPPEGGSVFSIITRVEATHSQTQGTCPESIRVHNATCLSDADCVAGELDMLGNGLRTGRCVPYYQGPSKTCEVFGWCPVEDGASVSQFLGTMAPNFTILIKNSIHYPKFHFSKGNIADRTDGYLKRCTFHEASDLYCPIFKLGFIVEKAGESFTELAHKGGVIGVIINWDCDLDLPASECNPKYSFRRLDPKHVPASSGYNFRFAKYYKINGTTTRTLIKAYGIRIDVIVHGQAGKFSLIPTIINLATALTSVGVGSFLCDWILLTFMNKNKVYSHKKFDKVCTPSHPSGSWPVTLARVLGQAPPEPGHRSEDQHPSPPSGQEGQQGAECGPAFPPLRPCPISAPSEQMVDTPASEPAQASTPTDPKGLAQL
Description: (§1) CHO-K1 cells were transfected with cloned rat P2X3 or human P2X2/3 receptor subunits and passaged in flasks. 18-24 hours before the FLIPR experiment, cells were released from their flasks, centrifuged, and resuspended in nutrient medium at 2.5×10^5 cells/ml. The cells were aliquoted into black-walled 96-well plates at a density of 50,000 cells/well and incubated overnight in 5% CO2 at 37° C. On the day of the experiment, cells were washed in FLIPR buffer (calcium- and magnesium-free Hank's balanced salt solution, 10 mM HEPES, 2 mM CaCl2, 2.5 mM probenecid; FB). Each well received 100 μl FB and 100 μl of the fluorescent dye Fluo-3 AM [2 μM final conc.]. […]
(§2) Test compounds (dissolved in DMSO at 10 mM and serially diluted with FB) or vehicle were added to each well (25 μl of a 4× solution) and allowed to equilibrate for 20 minutes at room temperature. The plates were then placed in the FLIPR and a baseline fluorescence measurement (excitation at 488 nm and emission at 510-570 nm) was obtained for 10 seconds before a 100 μl/well agonist or vehicle addition. […] Fluorescence was measured for an additional 2 minutes at 1 second intervals after agonist addition. A final addition of ionomycin (5 μM, final concentration) was made to each well of the FLIPR test plate to establish cell viability and maximum fluorescence of dye-bound cytosolic calcium. […]

rat P2X3 receptor = target: T2, rat P2X3 receptor (Rattus norvegicus, UniProt P49654); assay: P2X3 FLIPR (Fluorometric Imaging Plate Reader) assay; assay type: cell-based; conditions: CHO-K1 cells transfected with rat P2X3; agonist α,β-meATP 1 μM; read-out: pIC50 for the P2X3 receptor (converted)
T2 construct: expressed in transfected cells; host or cells: CHO-K1
T2 sequence (P49654 1-397): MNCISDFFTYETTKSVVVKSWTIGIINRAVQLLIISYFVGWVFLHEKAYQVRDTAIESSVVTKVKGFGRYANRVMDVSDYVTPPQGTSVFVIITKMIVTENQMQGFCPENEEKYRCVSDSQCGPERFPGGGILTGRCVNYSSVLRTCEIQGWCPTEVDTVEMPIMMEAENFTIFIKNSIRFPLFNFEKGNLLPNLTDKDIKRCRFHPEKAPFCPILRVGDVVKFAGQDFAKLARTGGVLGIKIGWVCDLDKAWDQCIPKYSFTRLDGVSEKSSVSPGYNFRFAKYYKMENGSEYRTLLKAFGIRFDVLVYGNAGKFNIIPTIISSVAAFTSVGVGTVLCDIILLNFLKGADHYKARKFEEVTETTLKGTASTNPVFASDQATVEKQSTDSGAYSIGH
Description: as §1, §2

- IC50 (human P2X2/3 receptor): ~39.8 nM
- IC50 (rat P2X3 receptor): ~15.8 nM
Compound: COc1cc(C(C)C)c(Oc2cnc(NC(=O)C(C)C)nc2N)cc1I [Compound 10, N-[4-Amino-5-(5-iodo-2-isopropyl-4-methoxy-phenoxy)-pyrimidin-2-yl]-isobutyramide]
